Like-named read-outs stand apart in the source and are kept apart here.
What was measured:
HCT116 MTAP null cells = assay: HCT116 MTAP null cell line proliferation (CellTiter-Glo cell viability, 6 days); assay type: cell-based; conditions: HCT116 MTAP null cells, 6 days of treatment, CellTiter-Glo cell viability, read-out: HCT-116 MTAP null IC50
Summary of the method: (§1)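 Isogenic HCT116 pair (parent and MTAP double-allele knockout) in RPMI 1640 + 10% FBS, exposed 6 days to compound: 8–9-point 1:3 dilutions from 1 or 10 μM top, or 22-point 1:2 dilutions from 10 or 50 μM top. CellTiter-Glo luminescence; IC50 from sigmoidal fit (Hill −1) or 4-parameter logistic.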

HCT116 WT cells = assay: HCT116 WT cell line proliferation (CellTiter-Glo cell viability, 6 days); assay type: cell-based; conditions: HCT116 WT (parent) cells, 6 days of treatment, CellTiter-Glo cell viability, read-out: HCT-116 WT IC50
Summary of the method: as §1

Structure (SMILES)	IC50 (HCT116 MTAP null cells; HCT116-MTAP null, 144 h)	IC50 (HCT116 WT cells; Homo sapiens, HCT-116, 144 h)	IC50 (HCT116 MTAP null cells)	IC50 (HCT116 WT cells)
Nc1nc2cc(F)c(C(=O)N3CCOCC3c3ccc(F)c(OC(F)(F)F)c3)cc2c2c1COC2 (racemic) [Example 347, (4-amino-7-fluoro-1,3-dihydrofuro[3,4-c]quinolin-8-yl)((3R)-3-(4-fluoro-3-(trifluoromethoxy)phenyl)-4-morpholinyl)methanone and (4-amino-7-fluoro-1,3-dihydrofuro[3,4-c]quinolin-8-yl)((3S)-3-(4-fluoro-3-(trifluoromethoxy)phenyl)-4-morpholinyl)methanone]	325 nM	4700 nM		
Nc1nc2ccc(C(=O)N3CCOCC3c3ccc(F)c(C(F)(F)F)c3)cc2c2c1COC2 (racemic) [Example 348, (4-amino-1,3-dihydrofuro[3,4-c]quinolin-8-yl)((3R)-3-(4-fluoro-3-(trifluoromethyl)phenyl)-4-morpholinyl)methanone and (4-amino-1,3-dihydrofuro[3,4-c]quinolin-8-yl)((3S)-3-(4-fluoro-3-(trifluoromethyl)phenyl)-4-morpholinyl)methanone]	784 nM	13000 nM		
Nc1nc2cnc(C(=O)N3CCOCC3c3ccc(F)c(C(F)(F)F)c3)cc2c2c1COC2 (racemic) [Example 349, (4-amino-1,3-dihydrofuro[3,4-c][1,7]naphthyridin-8-yl)((3R)-3-(4-fluoro-3-(trifluoromethyl)phenyl)-4-morpholinyl)methanone and (4-amino-1,3-dihydrofuro[3,4-c][1,7]naphthyridin-8-yl)((3S)-3-(4-fluoro-3-(trifluoromethyl)phenyl)-4-morpholinyl)methanone]			505 nM	20800 nM
Nc1nc2cc(Cl)c(C(=O)N3CCOCC3c3ccc(F)c(C(F)(F)F)c3)cc2c2c1COC2 (racemic) [Example 350, (4-amino-7-chloro-1,3-dihydrofuro[3,4-c]quinolin-8-yl)((3R)-3-(4-fluoro-3-(trifluoromethyl)phenyl)-4-morpholinyl)methanone and (4-amino-7-chloro-1,3-dihydrofuro[3,4-c]quinolin-8-yl)((3S)-3-(4-fluoro-3-(trifluoromethyl)phenyl)-4-morpholinyl)methanone]			107 nM	2890 nM
Nc1nc2cc(F)c(C(=O)N3CCOCC3c3ccc(C(F)(F)F)cn3)cc2c2c1COC2 (racemic) [Example 351, (4-amino-7-fluoro-1,3-dihydrofuro[3,4-c]quinolin-8-yl)((3R)-3-(5-(trifluoromethyl)-2-pyridinyl)-4-morpholinyl)methanone and (4-amino-7-fluoro-1,3-dihydrofuro[3,4-c]quinolin-8-yl)((3S)-3-(5-(trifluoromethyl)-2-pyridinyl)-4-morpholinyl)methanone]	129 nM	6000 nM		
Nc1nc2cc(F)c(C(=O)N3CCOCC3c3ccnc(C(F)(F)F)c3)cc2c2c1COC2 (racemic) [Example 352, (4-amino-7-fluoro-1,3-dihydrofuro[3,4-c]quinolin-8-yl)((3R)-3-(2-(trifluoromethyl)-4-pyridinyl)-4-morpholinyl)methanone and (4-amino-7-fluoro-1,3-dihydrofuro[3,4-c]quinolin-8-yl)((3S)-3-(2-(trifluoromethyl)-4-pyridinyl)-4-morpholinyl)methanone]			717 nM	20700 nM
Nc1nc2cc(Cl)c(C(=O)N3CCOCC3c3ccnc(C(F)(F)F)c3)cc2c2c1COC2 (racemic) [Example 353, (4-amino-7-chloro-1,3-dihydrofuro[3,4-c]quinolin-8-yl)((3R)-3-(2-(trifluoromethyl)-4-pyridinyl)-4-morpholinyl)methanone and (4-amino-7-chloro-1,3-dihydrofuro[3,4-c]quinolin-8-yl)((3S)-3-(2-(trifluoromethyl)-4-pyridinyl)-4-morpholinyl)methanone]			234 nM	6890 nM
C[C@H]1OCc2c1c(N)nc1ccc(C(=O)N3CCOC[C@@H]3c3ccnc(C(F)(F)F)c3)cc21 (racemic) [Example 354, ((3R)-4-amino-3-methyl-1,3-dihydrofuro[3,4-c]quinolin-8-yl)((3R)-3-(2-(trifluoromethyl)-4-pyridinyl)-4-morpholinyl)methanone and ((3R)-4-amino-3-methyl-1,3-dihydrofuro[3,4-c]quinolin-8-yl)((3S)-3-(2-(trifluoromethyl)-4-pyridinyl)-4-morpholinyl)methanone]	487 nM	> 10000 nM		
C[C@@H]1OCc2c1c(N)nc1cnc(C(=O)N3CCOC[C@H]3c3ccc(F)c(C(F)(F)F)c3)cc21 (racemic) [Example 355, ((3S)-4-amino-3-methyl-1,3-dihydrofuro[3,4-c][1,7]naphthyridin-8-yl)((3R)-3-(4-fluoro-3-(trifluoromethyl)phenyl)-4-morpholinyl)methanone and ((3S)-4-amino-3-methyl-1,3-dihydrofuro[3,4-c][1,7]naphthyridin-8-yl)((3S)-3-(4-fluoro-3-(trifluoromethyl)phenyl)-4-morpholinyl)methanone]	4060 nM	> 10000 nM		
C[C@H]1OCc2c1c(N)nc1cnc(C(=O)N3CCOC[C@H]3c3ccc(F)c(C(F)(F)F)c3)cc21 (racemic) [Example 356, ((3R)-4-amino-3-methyl-1,3-dihydrofuro[3,4-c][1,7]naphthyridin-8-yl)((3R)-3-(4-fluoro-3-(trifluoromethyl)phenyl)-4-morpholinyl)methanone and ((3R)-4-amino-3-methyl-1,3-dihydrofuro[3,4-c][1,7]naphthyridin-8-yl)((3S)-3-(4-fluoro-3-(trifluoromethyl)phenyl)-4-morpholinyl)methanone]	257 nM	> 10000 nM		
C[C@H]1OCc2c1c(N)nc1cnc(C(=O)N3CCOC[C@H]3c3ccc(C(F)(F)F)cn3)cc21 (racemic) [Example 357, ((3R)-4-amino-3-methyl-1,3-dihydrofuro[3,4-c][1,7]naphthyridin-8-yl)((3R)-3-(5-(trifluoromethyl)-2-pyridinyl)-4-morpholinyl)methanone and ((3R)-4-amino-3-methyl-1,3-dihydrofuro[3,4-c][1,7]naphthyridin-8-yl)((3S)-3-(5-(trifluoromethyl)-2-pyridinyl)-4-morpholinyl)methanone]	175 nM	9390 nM		
C[C@H]1OCc2c1c(N)nc1cnc(C(=O)N3CCOC[C@H]3c3ccc(F)c(OC(F)(F)F)c3)cc21 (racemic) [Example 358, ((3R)-4-amino-3-methyl-1,3-dihydrofuro[3,4-c][1,7]naphthyridin-8-yl)((3R)-3-(4-fluoro-3-(trifluoromethoxy)phenyl)-4-morpholinyl)methanone and ((3R)-4-amino-3-methyl-1,3-dihydrofuro[3,4-c][1,7]naphthyridin-8-yl)((3S)-3-(4-fluoro-3-(trifluoromethoxy)phenyl)-4-morpholinyl)methanone]	313 nM	14000 nM		
C[C@@H]1COC[C@H](c2ccc(OC(F)(F)F)cn2)N1C(=O)c1cc2c3c(c(N)nc2cn1)COC3 (racemic) [Example 359, (4-amino-1,3-dihydrofuro[3,4-c][1,7]naphthyridin-8-yl)((3R,5S)-3-methyl-5-(5-(trifluoromethoxy)-2-pyridinyl)-4-morpholinyl)methanone and (4-amino-1,3-dihydrofuro[3,4-c][1,7]naphthyridin-8-yl)((3S,5R)-3-methyl-5-(5-(trifluoromethoxy)-2-pyridinyl)-4-morpholinyl)methanone]	22 nM	765 nM		
Cc1ccccc1C1COCCN1C(=O)c1ccc2nc(N)c3c(c2c1)COC3 (racemic) [Example 362, (4-amino-1,3-dihydrofuro[3,4-c]quinolin-8-yl)-[rac-(3S)-3-(o-tolyl)morpholin-4-yl]methanone]	3410 nM	> 10000 nM		
Nc1nc2ccc(C(=O)N3CCOCC3c3ccc(F)cc3)cc2c2c1COC2 (racemic) [Example 363, (4-amino-1,3-dihydrofuro[3,4-c]quinolin-8-yl)-[rac-(3S)-3-(4-fluorophenyl)morpholin-4-yl]methanone]	1910 nM	> 10000 nM		
Nc1nc2ccc(C(=O)N3CCOCC3c3cccc(F)c3)cc2c2c1COC2 (racemic) [Example 364, (4-amino-1,3-dihydrofuro[3,4-c]quinolin-8-yl)-[rac-(3S)-3-(3-fluorophenyl)morpholin-4-yl]methanone]	3480 nM	> 10000 nM		
COc1ccc(C2COCCN2C(=O)c2ccc3nc(N)c4c(c3c2)COC4)cc1 (racemic) [Example 365, (4-amino-1,3-dihydrofuro[3,4-c]quinolin-8-yl)-[rac-(3S)-3-(4-methoxyphenyl)morpholin-4-yl]methanone]	1560 nM	> 10000 nM		
Nc1nc2ccc(C(=O)N3CCC(F)(F)CC3c3ccc(Br)cc3)cc2c2c1COC2 (racemic) [Example 368, (4-amino-1,3-dihydrofuro[3,4-c]quinolin-8-yl)-[rac-(2R)-2-(4-bromophenyl)-4,4-difluoro-1-piperidyl]methanone]	457 nM	2030 nM		
C[C@H]1OCc2c1c(N)nc1ccc(C(=O)N3[C@@H](C)COC[C@H]3c3ccc(C(F)(F)F)cn3)cc21 (racemic) [Example 372, ((3R)-4-amino-3-methyl-1,3-dihydrofuro[3,4-c]quinolin-8-yl)((3R,5S)-3-methyl-5-(5-(trifluoromethyl)-2-pyridinyl)-4-morpholinyl)methanone and ((3R)-4-amino-3-methyl-1,3-dihydrofuro[3,4-c]quinolin-8-yl)((3S,5R)-3-methyl-5-(5-(trifluoromethyl)-2-pyridinyl)-4-morpholinyl)methanone]	23 nM	613 nM		
